Assay [1] concerns human B cell lines VDS-O and CA-46. In words: Proliferation of indicator B cell lines. Format: cell-based. The settings on record: 1-100 μg/ml. An excerpt: Human mononuclear cells, and mononuclear cells enriched for T or B lymphocytes, were used in proliferation assays in the presence of phytohemagglutinin (Sigma), pokeweed-mitogen (Sigma), or Epstein-Barr virus (B95-8 strain), as described (Tosato et al., J. Immunol. 140:4329-4336, 1988). The lymphoblastoid cell line VDS-O (Tosato, et al., J. Immunol. 137:2037-2042, 1986); the Burkitt lymphoma cell lines CA46, BL-41, KK124, Ag876, SHO (Cherney et al., Cancer Res. 57:2508-2515, 1997); the T-cell line Molt-4 (ATCC); the Hodgkin's lymphoma cell line Hs445 (ATCC); the prostate adenocarcinoma cell lines TSU-Prl (from A. Passaniti, NIH, Baltimore, Md.), Du145 (ATCC), and PC3 (ATCC); and the acute promyelocytic leukemia cell line HL-60 (ATCC) were cultured in RPMI 1640 medium with 10% heat inactivated fetal calf serum (BioWhittaker), 20 mM L-glutamine (Sigma) and 5 μg/ml gentamicin, and tested in 3-5 day proliferation assays at cell densities ranging from 300 to 2400 cells/well. All other cell lines were tested for proliferation in 3-day assays. The neuroblastoma cell line SKNMC (ATCC) was cultured in EMEM medium (BioWhittaker) with 10% heat inactivated fetal calf serum (BioWhittaker) and 5 μg/ml gentamicin (Sigma) and tested for proliferation at 125-1000 cells/well. The lung adenocarcinoma cell line A549 (ATCC) was cultured in F-12 Nutrient Mixture (HAM, GIBCO BRL) with 10% heat inactivated fetal calf serum (BioWhittaker) and 5 μg/ml gentamicin (Sigma), and tested for proliferation at 250-2000 cells/well. The breast adenocarcinoma MDA-MB-468 (ATCC) and the Wilms tumor SK-NEP-1(ATCC) cell lines were cultured in Leibovitz L-15 medium (GIBCO BRL) supplemented with 10% heat inactivated fetal calf serum (BioWhittaker) and 5 μg/ml gentamicin (Sigma), and tested for proliferation at 300-2500 cells/well. The colon carcinoma cell line SW480 (ATCC), the melanoma cell line A-375 (ATCC), and human foreskin fibroblasts (H568, ATCC) were cultured in DMEM medium (BioWhittaker) with 10% heat inactivated fetal calf serum (BioWhittaker) and 5 μg/ml gentamicin (Sigma), and were tested for proliferation at 500-4000 cells/well. All cell lines tested mycoplasma negative.

Assay [2] relates to Fetal bovine heart endothelial cells.
Protocol: Fetal bovine heart endothelial cells (American Type Culture Collection, ATCC, Manassas, Va.) were grown through passage 12 in DMEM culture medium (BioWhittaker, Walkersville, Md.) containing 10% heat inactivated fetal bovine serum (BioWhittaker), 100 ng/ml bFGF (R&D Systems, Minneapolis, Minn.), and 5 μg/ml gentamicin (Sigma). For proliferation assays, cells were trypsinized (Trypsin/EDTA, Gibco BRL), washed, suspended in culture medium (DMEM containing 10% heat inactivated fetal bovine serum and 5 μg/ml gentamicin), plated (800 cells/well in 0.2 ml culture medium) in triplicate onto 96 well plates, and incubated for 5 days.
Assay [3] deals with T1, recombinant MBP-calreticulin fragment 120-180 (Seq. I.D. No. 5) (human, UniProt P14211 137-197 (mouse entry)).
T1 construct: also called MBP-120-180 calreticulin; 61 amino acid calreticulin fragment
T1 sequence: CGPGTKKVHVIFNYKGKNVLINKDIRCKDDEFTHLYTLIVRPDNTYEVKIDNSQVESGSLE
In words: affinity column carrying a mixture of the three peptides on Sepharose. As for the experimental part: To this end, purified preparations of the VDS-O cell line containing full length calreticulin (Seq. I.D. No. 3) as well as N-terminal calreticulin fragments were prepared and tested to determine how these components were retained over an affinity column. To prepare the affinity column, three peptides were synthesized ([…], Seq. I.D. 13; KAFFKR, Seq. I.D. No. 33; and KVFFKR, Seq. I.D. No. 32), purified, and coupled to CNBr-activated Sepharose 4B (Pharmacia). […] The purified preparations of VDS-O cell line containing both full length as well as N-terminal calreticulin fragments were then loaded on the column (Starting material).
To address this issue further, recombinant MBP-calreticulin fragment 120–180 (Seq. I.D. No. 5) was tested for its ability to bind to the affinity column described supra.

Assay [4] concerns peptides KLGFFKR, KAFFKR and KVFFKR coupled to CNBr-activated Sepharose. In words: Affinity column binding to integrin / steroid receptor motif peptides. The settings on record: elution with 20 mM EDTA. An excerpt: FIG. 18 is a Western blot analysis of fractions obtained through affinity purification over a column containing KXaa1FFXaa2R (Seq. I.D. No. 11) and KXaa1GFFKR (Seq. I.D. No. 10). Purified supernatants from the VDS-0 cell line containing full length calreticulin and N-terminal fragments of calreticulin were affinity purified over a mixture of peptides KLGFFKR (Seq. I.D. No. 13), KAFFKR (Seq. I.D. No. 33) and KVFFKR (Seq. I.D. No. 32) coupled to CNBr-activated Sepharose. Starting material (lane 1), unbound material (lanes 2, 3) and bound material (lanes 4, 5) were separated by SDS-PAGE, transferred to nitrocellulose, and subsequently stained with a rabbit antiserum against human calreticulin.
To this end, purified preparations of the VDS-O cell line containing full length calreticulin (Seq. I.D. No. 3) as well as N-terminal calreticulin fragments were prepared and tested to determine how these components were retained over an affinity column. To prepare the affinity column, three peptides were synthesized ([…], Seq. I.D. 13; KAFFKR, Seq. I.D. No. 33; and KVFFKR, Seq. I.D. No. 32), purified, and coupled to CNBr-activated Sepharose 4B (Pharmacia). First, the ability of calreticulin, purified from the culture supernatant of the lymphoblastoid cell line VDS-O, to selectively bind to the column and be eluted by a buffer solution containing 20 mM EDTA and 100 mM NaCl, was verified. […]

In assay [5] the test system is bFGF-induced neovascularization. In words: Murine Matrigel assay of angiogenesis in vivo. The arrangement: species or system BALB/c nude mice. The settings on record: Exp. 4; concentration not given; bFGF 150 ng/ml. As for the experimental part:
The murine Matrigel assay (Passaniti et al., Lab. Invest. 67:519-528, 1992) was employed to evaluate the effects of calreticulin and calreticulin fragments on angiogenesis in vivo. The Matrigel assay was performed as described by Angiolillo et al. (J. Exp. Med. 182:155-162, 1995). Matrigel, a crude extract of the Englebreth-Holm-Swarm tumor, was obtained from Collaborative Biomedical Products, Becton Dickinson Labware, Bedford, Mass. An aliquot (0.5 ml) of Matrigel alone or with desired additives was injected subcutaneously (s.c.) into the mid abdominal region of female BALB/c nude mice, 6-8 weeks old. Five mice were injected with each mixture. After 5-7 days, the animals were sacrificed, Matrigel plugs were removed, fixed in 10% neutral buffered formalin solution (Sigma), and embedded in paraffin. Tissues were sectioned (5μ thickness), and slides stained with Masson's trichrome. Quantitative analysis of angiogenesis in Matrigel plugs utilized a computerized semi-automated digital analyzer (Optomax, 40-10 System, Hollis, N.H.). The instrument was adjusted to evaluate a circular area measuring […] of Matrigel, and within this area, to measure the area occupied by cells. For each plug, 12-15 distinct fields were evaluated. The fields were randomly selected from each plug, and the operator was blind to the experimental design. The average area occupied by cells/1.26×10^5 […] Matrigel field was calculated. Results are expressed as the mean area occupied by cells/Matrigel field.
Matrigel plugs were fixed in 10% neutral buffered formalin solution (Sigma), embedded in paraffin, sectioned at 4 μm, and stained with Masson's trichrome by standard methods.

The mark [6] stands for this setting: Table 3 exp. 1, 12.5 μg/ml, bFGF 25 ng/ml, 5 days.
Where [7] appears, read: Table 3 exp. 1, 25 μg/ml, bFGF 25 ng/ml, 5 days.
Setting [8] is: Table 3 exp. 1, 50 μg/ml, bFGF 25 ng/ml, 5 days.
Where [9] appears, read: Table 3 exp. 2, 50 μg/ml, bFGF 25 ng/ml, 5 days.
Setting [10] is: Table 3 exp. 1, 100 μg/ml, bFGF 25 ng/ml, 5 days.
Where [11] appears, read: Table 3 exp. 2, 100 μg/ml, bFGF 25 ng/ml, 5 days.
Where [12] appears, read: Table 1 exp. 3, estimated concentration 0.160 μg/ml, bFGF 25 ng/ml, 5 days.
Where [13] appears, read: Table 1 exp. 1-2, 1 μg/ml, bFGF 25 ng/ml, 5 days.

Where two headings read alike, the source gives them in different places. Where no end group is shown, it is not given here.

Turning to “NYKGKNVLINKDIRCKDDEFTHLYTLIVRPDNTYEVKIDNSQVESGSLE [49 amino acid peptide]”, the “effect on proliferation of B cell lines VDS-O and CA-46” value in assay [1] is given as “neither peptide inhibited the proliferation”; in assay [1] (listed as 49 amino acid fragment), “minimal effect”. Also, the “Inhibition (%)” value was found to be 30.2% in assay [2] (setting [6]), 56.7% in assay [2] (setting [7]), 68.7% in assay [2] (setting [8]) and 45.4% in assay [2] (setting [9]). Moreover, the “Proliferation (mean cpm/culture)” value in assay [2] (setting [6]) is recorded as 9,743 cpm/culture; in assay [2] (setting [7]), 6,037 cpm/culture; in assay [2] (setting [8]) it was 4,368 cpm/culture; in assay [2] (setting [9]) it was 5,004 cpm/culture.
Regarding “GPGTKKVHVIFNYKGKNVLINKDIRCKDDEFTHLYTLIVRPDNTYEVKIDNSQVESGSLE [60 amino acid peptide]”, the “effect on proliferation of B cell lines VDS-O and CA-46” value in assay [1] was “neither peptide inhibited the proliferation”; in assay [1] (listed as 60 amino acid fragment) it was “minimal effect”. Moreover, the “Inhibition (%)” value in assay [2] (setting [8]) was 40.1%; in assay [2] (setting [10]) it was 87.9%; in assay [2] (setting [11]) it was 59.5%. The results for the “Proliferation (mean cpm/culture)” value in assay [2] (setting [8]), in assay [2] (setting [10]) and in assay [2] (setting [11]) were 8,318 cpm/culture, 1,688 cpm/culture and 3,709 cpm/culture, respectively.
In the case of RANTES [reference compound], the “inhibitory effect of control peptide in endothelial cell assays” value in assay [2] was “no inhibitory effect”. For the same molecule, the “Proliferation (mean cpm/culture)” value is on record as 16,443 cpm/culture in assay [2] (setting [10]); 13,644 cpm/culture in assay [2] (Table 3 exp. 2, 12.5 μg/ml, bFGF 25 ng/ml, 5 days); 10,291 cpm/culture in assay [2] (setting [9]).
Regarding “light chain of human ferritin: recombinant purified light chain of human ferritin [reference compound]”, the “effect on the proliferation of endothelial cells” value in assay [2] (1 pg to 1 μg/ml, not shown) is “minimal effect”.

B1: peptide KVFFKR (Seq. I.D. No. 32) (peptide)
peptide: KVFFKR
notes: Synthetic peptide, coupled to Sepharose in a mixture with the two other peptides; also called portion of the glucocorticoid receptor
Consider B1, for which the binding result in assay [3] is on record as “no binding”.

B2: peptide KLGFFKR (Seq. I.D. No. 13) (peptide)
peptide: KLGFFKR
notes: Synthetic peptide, coupled to Sepharose in a mixture with the two other peptides; also called portion of an integrin
Regarding B2, in assay [3], the binding result was “no binding”.

B3: peptide KAFFKR (Seq. I.D. No. 33) (peptide)
peptide: KAFFKR
notes: Synthetic peptide, coupled to Sepharose in a mixture with the two other peptides; also called portion of the estrogen receptor
Consider B3, for which the binding result in assay [3] is given as “no binding”.

B4: Gel-eluted calreticulin: natural calreticulin from purified VDS-O B cell line supernatant, 55 kDa band eluted from gel (protein)
chain: EPAVYFKEQFLDGDGWTSRWIESKHKSDFGKFVLSSGKFYGDEEKDKGLQTSQDARFYALSASFEPFSNKGQTLVVQFTVKHEQNIDCGGGYVKLFPNSLDQTDMHGDSEYNIMFGPDICGPGTKKVHVIFNYKGKNVLINKDIRCKDDEFTHLYTLIVRPDNTYEVKIDNSQVESGSLEDDWDFLPPKKIKDPDASKPEDWDERAKIDDPTDSKPEDWDKPEHIPDPDAKKPEDWDEEMDGEWEPPVIQNPEYKGEWKPRQIDNPDYKGTWIHPEIDNPEYSPDPSIYAYDNFGVLGLDLWQVKSGTIFDNFLITNDEAYAEEFGNETWGVTKAAEKQMKDKQDEEQRLKEEEEDKKRKEEEEAEDKEDDEDKDEDEEDEEDKEEDEEEDVPGQAKDEL
Take B4: the “binding to peptide affinity column” value in assay [4] is “retained by the column”. Further, in assay [2] (setting [12]), the “Inhibition (%)” value is listed as 81% and the Proliferation (mean cpm/culture) is 11,226 cpm/culture.

B5: Cleaved calreticulin: calreticulin cleaved (factor Xa) and purified from MBP-calreticulin (protein, UniProt P27797 18-417, looked up)
Calreticulin: B4 chain
Take B5: in assay [5], the “Inhibition (%)” value came out at 58% and the “Mean Surface Area Occupied by Cells” value was 3,464 mm^2/1.26 × 10^5 mm^2. Also, in assay [2] (setting [13]), the “Inhibition (%)” value is listed as 72% and the “Proliferation mean cpm/culture (±SD)” value is reported as 7,088 (1846) cpm/culture.

The values above are taken from US6867180B1, “Use of calreticulin and calreticulin fragments to inhibit endothelial cell growth and angiogenesis, and suppress tumor growth” (The United States of America as represented by the …, priority 1998, dated 2005).
